Read-outs that look alike come from different tables or passages of the source. One block for each molecule: values may come before it.
What was measured:
Solubility in solvents = type: physicochemical
Description: (§1) Icilin is a lemon yellow crystalline powder with a molecular weight of 311 Daltons and a melting point of 229 to 231° C. […] Thus, icilin would be considered as a lipophilic, hydrophobic compound that is not easily miscible with aqueous systems. Analogs of icilin, for example, with acetyoxy, ethyl, fluoro, or trifluoromethyl substitutions, retain similar chemical and physical properties and are included within the scope of this invention.
Menthol, by contrast, is a white crystal with a molecular weight of 156 Daltons and a melting point of 41 to 43° C., a temperature slightly above body temperature. […] Some analogs of menthol, e.g. (+)-neomenthol are colorless liquids at room temperature.

[1] = Stability at room temperature; type: physicochemical
Description: as §1

[2] = tested on: surfaces of the human body; test: Irritation upon contact with the surfaces of the human body; type: in vivo
[3] = tested on: anorectal area of subject with inflamed hemorrhoids; test: Example 2: anorectal administration in inflamed hemorrhoids; type: in vivo, human; conditions: icilin 20 mg/ml in propylene glycol admixed with saline laxative, 2 ml emulsion instilled into rectum
Description: A subject with inflamed hemorrhoids self-administered a commercial suppository, shaped as a 1.5-inch bullet, containing 25 mg of hydrocortisone. The suppository was coated with 5 mg of icilin and 5 mg of WS-23, a menthol analog. Cooling sensations were felt within 5 minutes in the anorectal area extending to the scrotum. Relief of discomfort and itch in the anorectal area lasted for longer than 3 hours. In a similar experiment, icilin, dissolved 20 mg/ml in propylene glycol was admixed with a isotonic sodium chloride solution laxative (containing monobasic sodium phosphate and dibasic sodium phosphate salts), and 2 ml of the emulsion was instilled into the rectum. Again, cooling sensations with relief of itch and discomfort were obtained for 2 hours.

abrasion on finger = test: Example 3: application to abrasion wound on finger; type: in vivo, human; conditions: applied directly to abrasion; icilin 0.8 mg
Description: A subject with an abrasion on their finger (caused by friction) of about 1 square centimeter received 0.8 mg of icilin applied directly to the wound with a swab stick.

lower eyelid = test: Example 4: application to lower eyelid; type: in vivo, human; conditions: for duration of cooling/refreshing effect: icilin 10 mg/ml solution
Description: A small quantity of a 10 mg/ml solution of icilin dissolved in propylene glycol was applied with a cotton swab stick to the lower eyelid of a subject. […] This effect lasted for about 45 minutes. […] The eyelids smarted from the harsh irritant actions of menthol. The individual blinked and the eyes were momentarily closed with a small degree of lachrymation. But, after about 1 minute, this discomfort dissipated and the cooling sensations of menthol were felt on the eyelid. The sensations were refreshing and lasted for about 15 minutes and accompanied by a minty odor.
By contrast, menthol cannot be used in eye drops because of its irritant actions.

[4] = tested on: nasal cavity of subject with hay fever; test: Examples 5 and 6: nasal administration in subject with hay fever; type: in vivo, human; conditions: for effect on nasal discharge, urge to sneeze, itchy eyelids: inhaled via the nose, hay fever subject
Description: A subject, suffering from hay fever (in this case, seasonal allergy to grass pollen) stopped taking antihistamines for 24 hours and inhaled via the nose 0.5 mg or 2 mg (on 2 separate occasions) of icilin in powder form.
Icilin, dissolved in propylene glycol, was added to a commercial preparation of an anti-allergy nasal spray containing fluticasone to attain a concentration of about 10 mg icilin/ml solution.

[5] = tested on: mouth, throat and upper alimentary tract; test: Example 7: chewing gum; type: in vivo, human
Description: Two mg of icilin was spread between two wafers of a fruit-flavored chewing gum and chewed for 5 minutes by a subject. […] But after 12 minutes general sensations of coolness were felt in the thoracic internal structures behind the sternum, in the epigastric area. These cooling effects lasted for about 45 minutes. By contrast, the chewing of mentholated gum or mentholated candy, produced after an initial harsh taste, strong cooling of the mouth and throat that lasted only about 10 minutes.
This experiment illustrates important pharmacokinetic differences between icilin and menthol. The effects of mentholated gum are immediate and localized to the mouth and throat. […] Further protection of the icilin by standard encapsulation technology will allow it to reach the distal portions of the gastrointestinal tract such as the lower ileum and colon where it may exert its pharmacological effects as a cold receptor agonist.

[6] = tested on: shaking behavior in the rat; conditions: cited from earlier work
rats = conditions: cited from earlier work
TRP(M8) receptor = TRP(M8) receptor (Rattus norvegicus, UniProt Q8R455); conditions: cloned and transfected TRP(M8) receptor; McKemy et al. 2002; cited from earlier work
receptors for cold = conditions: cited from earlier work
skin or mucous membranes = test: Duration of cooling effect after application to skin or mucous membranes; type: in vivo, human; conditions: applied to the skin or mucous membranes, regardless of dose
Excerpt: The physico-chemical differences between icilin and menthol confer unique advantages to icilin for manipulating sensory nerve discharges in certain defined clinical situations, as described hereinafter. The first advantage is the site of delivery: menthol cannot be delivered to the eyelids and its environs, the nasal membranes, or the mucous membranes of the anogenital region at high concentrations because it is pungent, stings and irritates. Icilin, on the other hand, can be administered to these sites because it is non-irritating. A second major advantage of icilin is its duration of action. Icilin's actions can be localized at its site of application for a prolonged period because of its lipophilic characteristics and because it can be administered as a powder or dispersed (either in solid form or solubilized) as an emulsion. By contrast, menthol is volatile and rapidly re-distributes and metabolizes in the body so its duration of action is relatively short. For example, icilin applied to nasal membranes can produce refreshing sensations for up to 3 hours.
In practicing the present invention, the topical administration of icilin relieves itching, especially when given in combination with a menthol analog. […]

Sequence of TRP(M8) receptor (Q8R455 whole entry): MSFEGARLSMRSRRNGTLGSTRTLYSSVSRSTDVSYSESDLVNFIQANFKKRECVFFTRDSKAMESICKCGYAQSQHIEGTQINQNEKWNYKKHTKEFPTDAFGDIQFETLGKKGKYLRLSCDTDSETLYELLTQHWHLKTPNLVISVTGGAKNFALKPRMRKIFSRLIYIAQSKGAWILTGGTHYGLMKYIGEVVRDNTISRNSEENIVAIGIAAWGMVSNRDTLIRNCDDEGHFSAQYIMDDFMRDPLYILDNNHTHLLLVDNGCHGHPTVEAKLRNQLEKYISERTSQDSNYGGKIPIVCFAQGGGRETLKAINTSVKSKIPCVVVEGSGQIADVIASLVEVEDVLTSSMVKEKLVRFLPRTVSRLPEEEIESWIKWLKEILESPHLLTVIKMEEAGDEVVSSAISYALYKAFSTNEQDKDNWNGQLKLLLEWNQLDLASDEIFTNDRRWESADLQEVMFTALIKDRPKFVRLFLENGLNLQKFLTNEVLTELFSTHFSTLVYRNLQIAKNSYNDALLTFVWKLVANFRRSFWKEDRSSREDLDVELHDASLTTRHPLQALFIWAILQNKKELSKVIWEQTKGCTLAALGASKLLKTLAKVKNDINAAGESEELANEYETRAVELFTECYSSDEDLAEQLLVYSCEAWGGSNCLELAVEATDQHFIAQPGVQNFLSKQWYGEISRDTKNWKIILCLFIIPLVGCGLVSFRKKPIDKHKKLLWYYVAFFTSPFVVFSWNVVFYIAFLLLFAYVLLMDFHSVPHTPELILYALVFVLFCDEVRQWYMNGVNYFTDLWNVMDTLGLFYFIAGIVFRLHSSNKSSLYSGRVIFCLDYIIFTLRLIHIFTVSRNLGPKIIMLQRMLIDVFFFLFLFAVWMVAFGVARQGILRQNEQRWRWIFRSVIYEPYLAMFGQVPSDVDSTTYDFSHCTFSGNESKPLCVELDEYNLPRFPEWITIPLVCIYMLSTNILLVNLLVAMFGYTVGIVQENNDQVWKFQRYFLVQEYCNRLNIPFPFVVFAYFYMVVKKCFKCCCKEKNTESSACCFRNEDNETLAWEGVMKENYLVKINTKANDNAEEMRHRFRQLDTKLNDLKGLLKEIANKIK

Compound: O=C1NC(c2cccc([N+](=O)[O-])c2)=CCN1c1ccccc1O [icilin, 1-[2-hydroxy]-4-[3-nitrophenyl]-1,2,3,6-tetrahydropyridimine-2-one]
solubility in ethanol and acetone (Solubility in solvents): slightly soluble
solubility in water (Solubility in solvents): virtually insoluble
solubility in organic solvents (Solubility in solvents; dimethylsulfoxide, nitromethane, dimethylacetamide and propanediols): readily soluble
stability [1]: stable at room temperature
irritation upon contact with body surfaces ([2]; powder): non-irritating
duration of cooling sensations with relief of itch and discomfort [3]: 2 h
effect on pain and coldness at wound site (abrasion on finger): pain was lessened
irritation of the eyelid (lower eyelid): without acute irritation
onset of prickling sensations of cold (lower eyelid; 10 mg/ml in propylene glycol): ≤ 10 min
duration of cooling/refreshing effect (lower eyelid; menthol crystals): about 45 minutes
duration of sense of free and unobstructed airflow / cold sensations ([4]; 0.5 mg or 2 mg powder inhaled via the nose): about 3 hours
duration of refreshing sensations ([4]; applied to nasal membranes): up to 3 hours
effect on nasal discharge, urge to sneeze, itchy eyelids [4]: curtailed and terminated
coolness in the mouth or throat ([5]; 2 mg in chewing gum): No sensations of coolness
onset of general sensations of coolness ([5]; 2 mg in chewing gum chewed 5 minutes, behind the sternum, epigastric area): 12 min
duration of cooling effects ([5]; 2 mg in chewing gum, thoracic/epigastric area): about 45 minutes
potency relative to menthol on shaking behavior ([6]; rat, molar basis): 400 times
behavioral syndrome elicited ([6]; rats and monkeys, accompanied by hyperthermia, hyperactivity and ptosis): wet dog shake behavior
toxicity relative to menthol, by oral median lethal dose (rats): less toxic than menthol
potency relative to menthol in eliciting ion channel current changes (TRP(M8) receptor): about 200 times
sensation elicited (receptors for cold; 0.1 mg applied to the dorsum of the tongue): prickling sensations of cold
sensation elicited (receptors for cold; ingestion of 6 mg, on one occasion out of three): sensations of coolness on the cheeks and on the inner surfaces of the arms and legs

solubility in ethanol (Solubility in solvents): soluble
solubility in water (Solubility in solvents): slightly soluble
time until discomfort dissipated (lower eyelid; menthol crystals): about 1 minute
Compound: CC1CCC(C(C)C)C(O)C1 (stereo not drawn) [menthol, reference compound]
irritation ([2]; high concentrations, eyes): irritating to the eyes
duration of cooling sensations (skin or mucous membranes): 15 to 30 min
effect on pain and coldness at wound site (abrasion on finger): did not elicit sensations of coldness or pain reduction
irritation of the eyelid (lower eyelid): sharp discomfort
duration of cooling/refreshing effect (lower eyelid; menthol crystals): about 15 minutes
duration of cooling effect ([4]; 0.8 mg crystals inhaled): 25 to 30 min
irritation on nasal inhalation ([4]; inhalation of crystals): initial burning sensation
effect on nasal discharge, urge to sneeze, itchy eyelids [4]: No overt beneficial effects
